Measurements as given in patent publication US6914045B2, “Glycopeptide antibiotics” (Wyeth Holdings Corporation, priority 2001, dated 2005).
In brackets after ≈: the same amount, converted by molar mass.

Legend:
Experiment in all cases: in vitro antibacterial evaluation, MIC by broth dilution
Assay type in all cases: cell-based
Enterococcus sp. = conditions: broth dilution, 18 hours at 35° C.
How it was run: (§1)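 Following National Committee for Clinical Laboratory Standards recommendations (M7-A2), susceptibility was measured by dilution in Muller-Hinton II […]. Bacteria were seeded at 5×10^5 CFU/mL against compound concentrations from 64 down to 0.06 μg/mL.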

Staphylococcus sp. = conditions: broth dilution, 18 hours at 35° C.
How it was run: as §1

Streptococcus sp. = conditions: broth dilution, 18 hours at 35° C.
How it was run: as §1

Escherichia coli = conditions: 18 hours at 35° C.

Which results are given for `CC(c1ccccc1)C1NC(=O)CNC(=O)C(CO[Si](C)(C)C(C)(C)C)NC(=O)C(C(O)C2CNC(=N)N2C2OC3COC(C)(C)OC3C3OC(C)(C)OC32)NC(=O)C(C(O)C2CNC(=N)N2)NC(=O)C(Cc2ccc(O)cc2)NC1=O` (stereo not shown) [Example 248]?
MIC Enterococcus avium (GC 4558) (Enterococcus sp.): 8 µg/mL (≈ 6.86 µM); MIC Enterococcus faecalis (ATCC 29212) (Enterococcus sp.): 64 µg/mL (≈ 54.9 µM); MIC Enterococcus faecalis (GC 2242) (Enterococcus sp.): 64 µg/mL (≈ 54.9 µM); MIC Enterococcus faecalis (GC 2691) (Enterococcus sp.): 32 µg/mL (≈ 27.5 µM); MIC Enterococcus faecalis (GC 3059) (Enterococcus sp.): 128 µg/mL (≈ 110 µM); MIC Enterococcus faecalis (GC 4552) (Enterococcus sp.): 128 µg/mL (≈ 110 µM); MIC Enterococcus faecalis (GC 4553) (Enterococcus sp.): 16 µg/mL (≈ 13.7 µM); MIC Enterococcus faecalis (GC 4554) (Enterococcus sp.): 64 µg/mL (≈ 54.9 µM); MIC Enterococcus faecalis (GC 6189) (Enterococcus sp.): 32 µg/mL (≈ 27.5 µM); MIC Enterococcus faecium (GC 2243) (Enterococcus sp.): 32 µg/mL (≈ 27.5 µM); MIC Enterococcus faecium (GC 4556) (Enterococcus sp.): 32 µg/mL (≈ 27.5 µM); MIC Enterococcus faecium (GC 4557) (Enterococcus sp.): 16 µg/mL (≈ 13.7 µM); MIC Enterococcus faecalis (ATCC 29212) (Enterococcus sp.; strain ATCC 29212): 64 µg/mL (≈ 54.9 µM); MIC Enterococcus faecalis (GC 2242) (Enterococcus sp.; strain GC 2242): 64 µg/mL (≈ 54.9 µM); MIC Enterococcus faecium (GC 2243) (Enterococcus sp.; strain GC 2243): 32 µg/mL (≈ 27.5 µM); MIC Enterococcus faecalis (GC 2691) (Enterococcus sp.; strain GC 2691): 32 µg/mL (≈ 27.5 µM); MIC Enterococcus faecalis (GC 3059) (Enterococcus sp.; strain GC 3059): 128 µg/mL (≈ 110 µM); MIC Enterococcus faecalis (GC 4552) (Enterococcus sp.; strain GC 4552): 128 µg/mL (≈ 110 µM); MIC Enterococcus faecalis (GC 4553) (Enterococcus sp.; strain GC 4553): 16 µg/mL (≈ 13.7 µM); MIC Enterococcus faecalis (GC 4554) (Enterococcus sp.; strain GC 4554): 64 µg/mL (≈ 54.9 µM); MIC Enterococcus faecium (GC 4556) (Enterococcus sp.; strain GC 4556): 32 µg/mL (≈ 27.5 µM); MIC Enterococcus faecium (GC 4557) (Enterococcus sp.; strain GC 4557): 16 µg/mL (≈ 13.7 µM); MIC Enterococcus avium (GC 4558) (Enterococcus sp.; strain GC 4558): 8 µg/mL (≈ 6.86 µM); MIC Enterococcus faecalis (GC 6189) (Enterococcus sp.; strain GC 6189): 32 µg/mL (≈ 27.5 µM); MIC Coagulase Negative Staphylococcus (GC 4547) (Staphylococcus sp.): 16 µg/mL (≈ 13.7 µM); MIC Coagulase Negative Staphylococcus (GC 4548) (Staphylococcus sp.): 32 µg/mL (≈ 27.5 µM); MIC Coagulase Negative Staphylococcus (GC 4549) (Staphylococcus sp.): 32 µg/mL (≈ 27.5 µM); MIC Coagulase Negative Staphylococcus (GC 4551) (Staphylococcus sp.): 32 µg/mL (≈ 27.5 µM); MIC Coagulase Negative Staphylococcus (GC 6257) (Staphylococcus sp.): 16 µg/mL (≈ 13.7 µM); MIC Staphylococcus aureus (ATCC 29213) (Staphylococcus sp.): 32 µg/mL (≈ 27.5 µM); MIC Staphylococcus aureus (GC 1131) (Staphylococcus sp.): 32 µg/mL (≈ 27.5 µM); MIC Staphylococcus aureus (GC 3051) (Staphylococcus sp.): 64 µg/mL (≈ 54.9 µM); MIC Staphylococcus aureus (GC 3053) (Staphylococcus sp.): 64 µg/mL (≈ 54.9 µM); MIC Staphylococcus aureus (GC 4541) (Staphylococcus sp.): 32 µg/mL (≈ 27.5 µM); MIC Staphylococcus aureus (GC 4542) (Staphylococcus sp.): 64 µg/mL (≈ 54.9 µM); MIC Staphylococcus aureus (GC 4544) (Staphylococcus sp.): 32 µg/mL (≈ 27.5 µM); MIC Staphylococcus aureus (GC 4545) (Staphylococcus sp.): 32 µg/mL (≈ 27.5 µM); MIC Staphylococcus aureus-SMITH (GC 4543) (Staphylococcus sp.): 32 µg/mL (≈ 27.5 µM); MIC Staphylococcus haemolyticus (GC 4546) (Staphylococcus sp.): 16 µg/mL (≈ 13.7 µM); MIC Staphylococcus aureus (ATCC 29213) (Staphylococcus sp.; strain ATCC 29213): 32 µg/mL (≈ 27.5 µM); MIC Staphylococcus aureus (GC 1131) (Staphylococcus sp.; strain GC 1131): 32 µg/mL (≈ 27.5 µM); MIC Staphylococcus aureus (GC 3051) (Staphylococcus sp.; strain GC 3051): 64 µg/mL (≈ 54.9 µM); MIC Staphylococcus aureus (GC 3053) (Staphylococcus sp.; strain GC 3053): 64 µg/mL (≈ 54.9 µM); MIC Staphylococcus aureus (GC 4541) (Staphylococcus sp.; strain GC 4541): 32 µg/mL (≈ 27.5 µM); MIC Staphylococcus aureus (GC 4542) (Staphylococcus sp.; strain GC 4542): 64 µg/mL (≈ 54.9 µM); MIC Staphylococcus aureus-SMITH (GC 4543) (Staphylococcus sp.; strain GC 4543): 32 µg/mL (≈ 27.5 µM); MIC Staphylococcus aureus (GC 4544) (Staphylococcus sp.; strain GC 4544): 32 µg/mL (≈ 27.5 µM); MIC Staphylococcus aureus (GC 4545) (Staphylococcus sp.; strain GC 4545): 32 µg/mL (≈ 27.5 µM); MIC Staphylococcus haemolyticus (GC 4546) (Staphylococcus sp.; strain GC 4546): 16 µg/mL (≈ 13.7 µM); MIC Coagulase Negative Staphylococcus (GC 4547) (Staphylococcus sp.; strain GC 4547): 16 µg/mL (≈ 13.7 µM); MIC Coagulase Negative Staphylococcus (GC 4548) (Staphylococcus sp.; strain GC 4548): 32 µg/mL (≈ 27.5 µM); MIC Coagulase Negative Staphylococcus (GC 4549) (Staphylococcus sp.; strain GC 4549): 32 µg/mL (≈ 27.5 µM); MIC Coagulase Negative Staphylococcus (GC 4551) (Staphylococcus sp.; strain GC 4551): 32 µg/mL (≈ 27.5 µM); MIC Coagulase Negative Staphylococcus (GC 6257) (Staphylococcus sp.; strain GC 6257): 16 µg/mL (≈ 13.7 µM); MIC Streptococcus agalactiae (GC 4564) (Streptococcus sp.): 64 µg/mL (≈ 54.9 µM); MIC Streptococcus pneumoniae (ATCC 6301) (Streptococcus sp.): 64 µg/mL (≈ 54.9 µM); MIC Streptococcus pneumoniae (GC 1894) (Streptococcus sp.): 64 µg/mL (≈ 54.9 µM); MIC Streptococcus pneumoniae (GC 4565) (Streptococcus sp.): 128 µg/mL (≈ 110 µM); MIC Streptococcus pyogenes (GC 4563) (Streptococcus sp.): 32 µg/mL (≈ 27.5 µM); MIC Streptococcus pneumoniae (ATCC 6301) (Streptococcus sp.; strain ATCC 6301): 64 µg/mL (≈ 54.9 µM); MIC Streptococcus pneumoniae (GC 1894) (Streptococcus sp.; strain GC 1894): 64 µg/mL (≈ 54.9 µM); MIC Streptococcus pyogenes (GC 4563) (Streptococcus sp.; strain GC 4563): 32 µg/mL (≈ 27.5 µM); MIC Streptococcus agalactiae (GC 4564) (Streptococcus sp.; strain GC 4564): 64 µg/mL (≈ 54.9 µM); MIC Streptococcus pneumoniae (GC 4565) (Streptococcus sp.; strain GC 4565): 128 µg/mL (≈ 110 µM); MIC Escherichia coli (ATCC 25922) (Escherichia coli): 64 µg/mL (≈ 54.9 µM); MIC Escherichia coli (GC 4559) (Escherichia coli): 64 µg/mL (≈ 54.9 µM); MIC Escherichia coli (GC 4560) (Escherichia coli): 8 µg/mL (≈ 6.86 µM)
